Measurements taken from patent publication US20100004128A1, “HERBICIDAL ISOXAZOLINE COMPOUNDS” (SYNGENTA CROP PROTECTION, INC., priority 2006, published 2010).

Assays:
[1] = system: Monocotyledonous and dicotyledonous test plants; assay: Herbicidal action, application pre-emergence; type: in vivo; set-up: key: 10=total damage to plant; 0=no damage to plant; conditions: spray solution 1000 mg/l, scale 0-10; for Herbicidal action (damage score) AGSTE: Agrostis tenius; for Herbicidal action (damage score) AMARE: Amaranthus retroflexus; for Herbicidal action (damage score) DIGSA: Digitaria sanguinalis; for Herbicidal action (damage score) POATR: Poa trivialis; for Herbicidal action (damage score) SETIT: Setaria italica; for Herbicidal action (damage score) SETFA: Setaria faberi
Protocol: Monocotyledonous and dicotyledonous test plants were sown in sterilised standard soil in seed trays each having 96 cells. After one day (pre-emergence) or after 8 to 9 days cultivation (post-emergence) under controlled conditions in a climatic chamber (cultivation at 23/17° C., day/night; 13 hours light; 50-60% humidity; after application at 24/19° C., day/night), the plants were treated with an aqueous spray solution of 1000 mg/l of the active ingredient used (incl. 10% DMSO as solvent). The plants were grown on in the climatic chamber until the test was evaluated (10=total damage to plant, 0=no damage to plant) after 9 or 13 days.

| Structure (SMILES) | Herbicidal action (damage score) AGSTE [1] | Herbicidal action (damage score) AMARE [1] | Herbicidal action (damage score) DIGSA [1] | Herbicidal action (damage score) POATR [1] | Herbicidal action (damage score) SETIT [1] | melting point [°C] | Herbicidal action (damage score) SETFA [1] |
| --- | --- | --- | --- | --- | --- | --- | --- |
| Cn1nc(CF)c(C(F)(F)S(=O)(=O)C2=NOC(C)(C)C2)n1 [Compound No. 1.01, 4-[(5,5-dimethyl-4,5-dihydro-isoxazole-3-sulfonyl)-difluoro-methyl]-5-fluoromethyl-2-methyl-2H-[1,2,3]triazole] | 10 | 10 | 10 | 10 | 10 | 54 |  |
| Cn1nc(CF)c(C(F)(Cl)S(=O)(=O)C2=NOC(C)(C)C2)n1 (stereo not drawn) [Compound No. 1.03, 4-[chloro-(5,5-dimethyl-4,5-dihydro-isoxazole-3-sulfonyl)-fluoro-methyl]-5-fluoromethyl-2-methyl-2H-[1,2,3]triazole] | 10 | 8 | 10 | 10 | 9 | 80 |  |
| Cc1nn(C)nc1C(F)(F)S(=O)(=O)C1=NOC(C)(C)C1 [Compound No. 1.05] | 10 | 10 | 10 | 10 | 10 |  |  |
| Cc1nn(C)nc1C(F)(F)[S+]([O-])C1=NOC(C)(C)C1 (stereo not drawn) [Compound No. 1.08, 4-[(5,5-dimethyl-4,5-dihydro-isoxazole-3-sulfinyl)-difluoro-methyl]-2,5-dimethyl-2H-1,2,31-triazole] | 10 | 10 | 10 | 10 |  |  | 9 |
| CC1(C)CC(S(=O)(=O)C(F)c2cn(C(C)(C)C)nn2)=NO1 (stereo not drawn) [Compound No. 2.01] | 10 | 3 | 9 | 0 |  |  | 9 |
| Cn1nnc(C(F)(F)F)c1C(F)S(=O)(=O)C1=NOC(C)(C)C1 (stereo not drawn) [Compound No. 3.01] | 10 | 5 | 10 | 10 | 8 |  |  |
| Cn1nnc(C(F)(F)F)c1C(F)(F)[S+]([O-])C1=NOC(C)(C)C1 (stereo not drawn) [Compound No. 3.03] | 10 | 10 | 9 | 10 |  |  | 8 |
| Cn1nnc(Br)c1C(F)(F)S(=O)(=O)C1=NOC(C)(C)C1 [Compound No. 3.04] | 10 | 10 | 9 | 10 |  |  | 9 |
